Consider 15 molecules from ChEMBL document CHEMBL1201862, “PubChem BioAssay data set” (2004).

For one assay, the target named is Cytochrome P450 2C9 (Homo sapiens, UniProt P11712).
Assay [1] is described as follows: viability loss in THP-1 monocytes – THP-1 cells, cytotoxicity control for Vif-APOBEC3G degradation inhibitor project, dose response (AID 1117359). The format is functional. To be noted: THP-1.
Assay [2] in a line: viability inhibitors of stage V gametocytes – luminescence, dose response (AID 1117278).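 Also: gametocytes exposed to compound for 24 hours.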 The format is functional, cell-based.
The nature of assay [3]: viability loss in human Jurkat cells – cell-based, luminescence, cytotoxicity control for P. falciparum gametocyte viability project, dose response (AID 1117277).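 Also: potency reflects loss of cellular ATP meaning fewer viable cells.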 Type of assay: functional.
For assay [4], the target named is T1, Mannose-6-phosphate isomerase (Homo sapiens, UniProt P34949).
T1 sequence (P34949 whole entry): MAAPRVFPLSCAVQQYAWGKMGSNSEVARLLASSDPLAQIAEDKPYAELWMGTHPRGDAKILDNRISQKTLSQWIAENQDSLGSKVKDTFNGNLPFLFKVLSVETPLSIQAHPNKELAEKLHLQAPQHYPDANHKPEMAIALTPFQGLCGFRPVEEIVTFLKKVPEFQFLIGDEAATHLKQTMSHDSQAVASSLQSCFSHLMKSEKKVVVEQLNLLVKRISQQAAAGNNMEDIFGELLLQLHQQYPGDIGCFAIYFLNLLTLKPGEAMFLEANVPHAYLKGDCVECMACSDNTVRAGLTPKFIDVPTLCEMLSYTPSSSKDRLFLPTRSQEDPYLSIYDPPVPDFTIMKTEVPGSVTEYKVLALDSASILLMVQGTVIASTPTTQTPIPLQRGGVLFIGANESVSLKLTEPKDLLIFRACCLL
Briefly: MPI inhibition at elevated mannose 6-phosphate – biochemical, fluorescence intensity, high mannose 6-phosphate, primary screen (AID 1220).

The target in assay [5] is T2, Apoptotic protease-activating factor 1 (Homo sapiens, UniProt O14727).
T2 sequence (O14727 whole entry): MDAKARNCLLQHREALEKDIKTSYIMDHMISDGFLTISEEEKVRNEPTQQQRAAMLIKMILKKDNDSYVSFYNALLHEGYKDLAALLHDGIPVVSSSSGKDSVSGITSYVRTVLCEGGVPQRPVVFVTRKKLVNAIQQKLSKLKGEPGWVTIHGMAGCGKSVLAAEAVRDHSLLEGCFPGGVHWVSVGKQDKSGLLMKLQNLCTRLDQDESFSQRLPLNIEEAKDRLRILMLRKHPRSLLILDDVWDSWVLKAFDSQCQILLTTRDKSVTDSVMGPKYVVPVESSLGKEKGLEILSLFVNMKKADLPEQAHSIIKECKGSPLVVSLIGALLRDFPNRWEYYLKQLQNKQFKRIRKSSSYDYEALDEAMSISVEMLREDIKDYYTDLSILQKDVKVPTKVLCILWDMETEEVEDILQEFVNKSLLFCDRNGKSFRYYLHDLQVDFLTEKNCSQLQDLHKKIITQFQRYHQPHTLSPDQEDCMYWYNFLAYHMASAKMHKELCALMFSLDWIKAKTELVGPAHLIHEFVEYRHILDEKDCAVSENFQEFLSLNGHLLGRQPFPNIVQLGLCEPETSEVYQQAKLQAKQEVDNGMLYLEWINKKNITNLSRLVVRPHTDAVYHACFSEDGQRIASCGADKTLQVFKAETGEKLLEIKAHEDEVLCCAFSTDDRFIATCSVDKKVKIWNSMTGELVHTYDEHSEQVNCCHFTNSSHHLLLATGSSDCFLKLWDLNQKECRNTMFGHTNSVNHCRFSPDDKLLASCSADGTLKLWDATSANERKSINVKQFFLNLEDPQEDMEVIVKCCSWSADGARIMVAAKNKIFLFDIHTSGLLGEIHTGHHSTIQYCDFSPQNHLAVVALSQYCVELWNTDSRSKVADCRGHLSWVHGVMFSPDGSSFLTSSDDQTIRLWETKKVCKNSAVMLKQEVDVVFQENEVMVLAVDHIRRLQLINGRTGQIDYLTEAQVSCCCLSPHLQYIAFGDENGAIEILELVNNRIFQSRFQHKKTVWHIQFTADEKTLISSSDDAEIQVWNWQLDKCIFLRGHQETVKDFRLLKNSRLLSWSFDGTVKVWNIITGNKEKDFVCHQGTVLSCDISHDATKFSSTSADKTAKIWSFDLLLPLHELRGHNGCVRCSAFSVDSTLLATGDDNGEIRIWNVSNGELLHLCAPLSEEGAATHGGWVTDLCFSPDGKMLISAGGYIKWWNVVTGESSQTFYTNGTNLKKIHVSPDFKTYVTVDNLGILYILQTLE
The format is functional.

For another assay, the target named is T3, Protein RecA (Mycobacterium tuberculosis, UniProt P9WHJ3).
T3 sequence (P9WHJ3 whole entry): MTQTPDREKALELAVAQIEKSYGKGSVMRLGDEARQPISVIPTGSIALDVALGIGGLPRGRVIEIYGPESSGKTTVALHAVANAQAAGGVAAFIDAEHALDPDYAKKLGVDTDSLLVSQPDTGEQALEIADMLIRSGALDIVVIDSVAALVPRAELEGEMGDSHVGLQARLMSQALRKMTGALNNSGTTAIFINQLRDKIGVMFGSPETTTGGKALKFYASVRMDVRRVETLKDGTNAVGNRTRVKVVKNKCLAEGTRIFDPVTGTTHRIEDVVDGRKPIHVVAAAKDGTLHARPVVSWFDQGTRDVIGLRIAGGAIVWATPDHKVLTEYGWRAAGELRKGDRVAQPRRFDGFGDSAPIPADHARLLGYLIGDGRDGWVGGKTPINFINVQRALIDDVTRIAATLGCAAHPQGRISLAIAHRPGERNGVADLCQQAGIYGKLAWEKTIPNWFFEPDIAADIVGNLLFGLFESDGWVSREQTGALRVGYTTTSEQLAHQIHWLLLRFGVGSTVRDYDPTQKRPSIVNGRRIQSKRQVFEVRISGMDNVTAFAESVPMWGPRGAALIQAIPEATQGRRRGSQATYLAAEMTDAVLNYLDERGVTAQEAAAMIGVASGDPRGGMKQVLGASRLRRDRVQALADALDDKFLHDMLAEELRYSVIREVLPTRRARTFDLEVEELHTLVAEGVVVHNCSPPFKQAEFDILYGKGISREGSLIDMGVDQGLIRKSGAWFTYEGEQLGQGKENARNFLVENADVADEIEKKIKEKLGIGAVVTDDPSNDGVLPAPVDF
The experiment in a line: Fluorescence Cell-Free Homogeneous Dose Retest to Identify Inhibitors of RecA-Intein Splicing Activity. [Related pubchem assays (depositor defined):AID2097, AID2223, AID489010, AID492950]. Type of assay: functional.

For assay [6], the target named is Glucose-6-phosphate 1-dehydrogenase (Homo sapiens, UniProt P11413). The experiment in a line: inhibition of Homo sapiens G6PD, dose series – biochemical, fluorescence, selectivity assay for P. falciparum G6PD inhibitor project, dose response (AID 504792). The format is functional.
For assay [7], the target named is Luciferin 4-monooxygenase (Photinus pyralis, UniProt P08659). The experiment in a line: Counter Screen for Luciferase-based Assay Positives. [Related pubchem assays: 620, 618, 411 ].
The subject of a further assay is HT-1080. The experiment in a line: HT1080 cell viability loss – fluorescence readout (AID 620). Type of assay: functional, cell-based. To be noted: Homo sapiens.
Assay [8] can be described thus: HIV-1 Vif–A3G interaction blockers – biochemical, TR-FRET, GST-Vif 1-94, biotin-A3G peptide, dose response retest, primary screen (AID 1117319).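 Also: TR-FRET signal of purified GST-Vif binding a biotinylated A3G peptide; inhibitors lower the FRET signal by blocking Vif and A3G binding.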 The format is functional. A general note: TR-FRET usually uses a lanthanide donor and a delayed reading to cut background.
For another assay, the system named is Streptococcus. The experiment in a line: GAS UMAA2166 growth inhibition – luminescence, BacTiterGlo, counter-screen for streptokinase expression inhibitor project, dose response (AID 1915).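 Also: potency for reduction of bacterial viability or growth.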 Type of assay: functional, organism-based. (The purpose of a counterscreen is to sort out artefacts and off-target activity.)
The next assay addresses T4, Streptokinase A (Streptococcus pyogenes serotype M1, UniProt P10520).
T4 sequence (P10520 whole entry): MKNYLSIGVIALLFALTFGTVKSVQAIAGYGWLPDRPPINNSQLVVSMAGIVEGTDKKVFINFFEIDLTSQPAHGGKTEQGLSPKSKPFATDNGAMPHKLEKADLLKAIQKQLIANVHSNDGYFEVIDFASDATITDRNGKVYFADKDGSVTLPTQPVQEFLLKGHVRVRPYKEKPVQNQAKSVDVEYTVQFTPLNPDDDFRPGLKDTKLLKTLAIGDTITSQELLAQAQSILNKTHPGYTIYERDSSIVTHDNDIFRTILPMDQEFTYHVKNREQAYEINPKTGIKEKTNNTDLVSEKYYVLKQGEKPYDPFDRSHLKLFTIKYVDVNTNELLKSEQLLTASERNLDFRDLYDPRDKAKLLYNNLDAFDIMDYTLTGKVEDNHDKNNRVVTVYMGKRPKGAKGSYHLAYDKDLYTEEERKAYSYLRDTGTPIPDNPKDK
Briefly: viability-normalized secreted streptokinase activity reduction – plasminogen activation absorbance, OD405, dose response (AID 1914).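 Also: secreted streptokinase activity via plasminogen activation per viability signal from cell pellet.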 The format is functional, Streptococcus pyogenes M1 GAS.

The test system of assay [9] is Streptococcus sp. 'group A'. The experiment in a line: Streptococcus pyogenes SK(-)GAS viability under kanamycin – luminescence, BacTiterGlo, confirmation, counter-screen for streptokinase expression inhibitor project, dose response (AID 1900). The format is functional, organism-based.
For the next assay, the target named is Estrogen receptor beta (Homo sapiens, UniProt Q92731).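 Also: recombinant ER-beta bound to coactivator SRC1 peptide in presence of estradiol agonist; inhibitors block coactivator peptide binding and lower the FRET signal.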
Assay [10] can be described thus: HEK-293T cell viability reduction – luminescence, B-cell screen hits, cytotoxicity control for BCR NF-kB inhibitor project, dose response (AID 489021).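 Also: HEK-293T cells carrying an NF-kB luciferase reporter; cells exposed to compound for about 14 hours before viability readout.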 The format is functional, cell-based.
A short description of assay [11]: A Cell Based Secondary Assay To Explore Cytotoxicity of Compounds that Sensitize Mycobacterium Tuberculosis to Beta-Lactam Antibiotics. The format is functional.
The target in assay [12] is T5, COUP transcription factor 2 (Homo sapiens, UniProt P24468).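 Also: HEK293 cells transiently cotransfected with COUP-TFII expression vector and reporter; luciferase reporter luminescence driven by COUP-TFII from the pX2-168 reporter plasmid.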
T5 sequence (P24468 whole entry): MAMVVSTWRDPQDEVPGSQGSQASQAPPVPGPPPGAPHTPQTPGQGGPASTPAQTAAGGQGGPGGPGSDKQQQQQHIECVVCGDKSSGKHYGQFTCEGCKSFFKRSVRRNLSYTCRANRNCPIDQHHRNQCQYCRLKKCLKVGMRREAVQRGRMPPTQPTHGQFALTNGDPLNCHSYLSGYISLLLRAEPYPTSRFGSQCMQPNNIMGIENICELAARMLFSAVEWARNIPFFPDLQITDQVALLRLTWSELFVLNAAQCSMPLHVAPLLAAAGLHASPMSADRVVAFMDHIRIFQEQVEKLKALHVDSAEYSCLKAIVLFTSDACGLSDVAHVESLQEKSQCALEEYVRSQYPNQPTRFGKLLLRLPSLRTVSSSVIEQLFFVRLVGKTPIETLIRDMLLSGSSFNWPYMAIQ
Briefly: Luminescence-based cell-based high throughput dose response assay to identify inhibitors of COUP-TFII (NR2F2). Type of assay: functional.

The structures appear in SMILES notation. Calls of active or inactive are those of the source.

Sequence of Glucose-6-phosphate 1-dehydrogenase (P11413 whole entry): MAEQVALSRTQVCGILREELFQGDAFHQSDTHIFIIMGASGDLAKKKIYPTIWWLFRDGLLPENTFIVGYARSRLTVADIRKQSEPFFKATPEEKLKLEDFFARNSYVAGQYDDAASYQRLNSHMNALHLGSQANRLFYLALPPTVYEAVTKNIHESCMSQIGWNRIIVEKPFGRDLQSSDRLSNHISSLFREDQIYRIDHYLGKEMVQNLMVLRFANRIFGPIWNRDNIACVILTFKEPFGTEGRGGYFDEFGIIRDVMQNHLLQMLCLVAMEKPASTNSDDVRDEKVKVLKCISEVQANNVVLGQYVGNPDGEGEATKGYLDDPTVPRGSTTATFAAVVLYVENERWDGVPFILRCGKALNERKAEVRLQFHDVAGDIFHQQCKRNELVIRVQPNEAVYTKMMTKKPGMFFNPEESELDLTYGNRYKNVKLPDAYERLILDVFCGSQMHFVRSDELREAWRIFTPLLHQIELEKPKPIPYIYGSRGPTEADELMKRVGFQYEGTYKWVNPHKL
Sequence of Cytochrome P450 2C9 (P11712 whole entry): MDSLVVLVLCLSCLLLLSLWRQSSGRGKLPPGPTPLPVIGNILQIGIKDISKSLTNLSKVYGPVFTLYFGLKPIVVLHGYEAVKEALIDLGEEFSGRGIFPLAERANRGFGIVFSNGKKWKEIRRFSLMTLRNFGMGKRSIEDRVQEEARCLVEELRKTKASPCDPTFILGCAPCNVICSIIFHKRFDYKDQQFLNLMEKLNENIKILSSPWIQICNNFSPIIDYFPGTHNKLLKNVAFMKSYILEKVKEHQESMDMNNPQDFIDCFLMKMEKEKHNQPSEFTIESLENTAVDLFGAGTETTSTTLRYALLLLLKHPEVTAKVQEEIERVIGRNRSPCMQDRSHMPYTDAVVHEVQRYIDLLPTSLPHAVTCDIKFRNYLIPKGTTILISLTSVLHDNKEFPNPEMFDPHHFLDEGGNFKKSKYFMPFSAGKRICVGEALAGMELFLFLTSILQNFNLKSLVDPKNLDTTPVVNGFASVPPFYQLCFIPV
Sequence of Luciferin 4-monooxygenase (P08659 whole entry): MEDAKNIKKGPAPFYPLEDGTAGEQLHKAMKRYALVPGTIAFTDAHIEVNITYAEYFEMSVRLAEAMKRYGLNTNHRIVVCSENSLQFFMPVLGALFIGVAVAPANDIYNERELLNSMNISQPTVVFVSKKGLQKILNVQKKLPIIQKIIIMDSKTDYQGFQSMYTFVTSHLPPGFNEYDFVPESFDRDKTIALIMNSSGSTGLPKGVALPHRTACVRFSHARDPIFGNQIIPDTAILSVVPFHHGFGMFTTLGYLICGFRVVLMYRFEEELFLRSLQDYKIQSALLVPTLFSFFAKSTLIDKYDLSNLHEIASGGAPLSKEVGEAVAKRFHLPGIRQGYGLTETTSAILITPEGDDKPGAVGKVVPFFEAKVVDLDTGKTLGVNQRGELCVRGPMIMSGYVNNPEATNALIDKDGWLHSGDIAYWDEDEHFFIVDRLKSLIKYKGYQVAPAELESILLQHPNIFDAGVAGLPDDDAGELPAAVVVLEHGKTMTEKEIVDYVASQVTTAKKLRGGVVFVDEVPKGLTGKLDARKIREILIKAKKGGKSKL
Sequence of Estrogen receptor beta (Q92731 whole entry): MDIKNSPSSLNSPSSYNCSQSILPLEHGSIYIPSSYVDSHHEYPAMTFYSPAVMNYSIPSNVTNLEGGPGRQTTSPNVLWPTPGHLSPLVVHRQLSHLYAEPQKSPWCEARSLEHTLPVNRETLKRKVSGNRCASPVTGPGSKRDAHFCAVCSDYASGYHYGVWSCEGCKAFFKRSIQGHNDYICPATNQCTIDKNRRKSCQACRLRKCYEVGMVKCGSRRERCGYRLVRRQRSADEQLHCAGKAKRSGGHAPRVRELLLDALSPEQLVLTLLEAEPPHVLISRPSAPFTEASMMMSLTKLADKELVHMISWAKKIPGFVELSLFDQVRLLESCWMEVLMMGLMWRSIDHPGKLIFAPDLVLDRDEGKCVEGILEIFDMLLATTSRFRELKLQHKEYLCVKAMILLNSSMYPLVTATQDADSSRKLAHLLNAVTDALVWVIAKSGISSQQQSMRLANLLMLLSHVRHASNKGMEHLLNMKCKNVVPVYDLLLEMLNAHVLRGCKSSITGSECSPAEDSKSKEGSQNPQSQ

On to `CCOC(=O)c1nc(O)c2c(C)c(C)sc2n1`, for which, on Cytochrome P450 2C9, the half-maximal activity concentration (AC50) (in general, the midpoint of the concentration-response curve, whichever way the signal moves) is 20 µM (inconclusive). Besides, in assay [1], the CC50 – broadly, the concentration that lowers cell viability or growth by half – was > 40 µM (active).

Consider `CCC(C)Sc1nc2c(c(=O)[nH]c(=O)n2C)n1CC(O)COc1ccccc1C` (configuration not stated), for which the results for the IC50 in assay [2] and in assay [3] were > 109 µM (inactive) and > 83.3 µM (inactive), respectively.

`CCCCCn1c(N)c(C(=O)NCc2cccs2)c2nc3ccccc3nc21`: the IC50 – broadly, the point on the concentration scale where inhibition reaches its midpoint – was > 50 µM (not active) in [4] and 53.7 µM (active) in [5]. For the same molecule, the EC50 (in general, the concentration giving half of the maximal effect) on Protein RecA was 1.24 µM (active).

For `CCN(CC)CCCN1C(=O)CSC1c1ccc2c(c1)OCO2` (configuration not stated), the IC50 was > 109 µM (inactive) in [2] and > 83.3 µM (inactive) in [3].

Take `CCC(c1ccc(O)c(O)c1)C(CC)c1ccc(O)c(O)c1` (configuration not stated): the CC50 in [1] is 11.7 µM (active). Besides, the IC50 in assay [6] is > 80 µM (inactive).

`Cc1c(C(=O)NCC2CCCO2)oc2ccc3c(c12)C(=O)CC(C)(C)O3` (configuration not stated): the results for the 50% effective concentration (EC50) (in assay [7]; with HT-1080) were 0.54 µM (active) and > 50 µM (not active), respectively.

Take `CCC(Sc1nc2cc(OC)c(OC)cc2c(=O)n1Cc1ccco1)C(=O)NCCOC` (configuration not stated): the IC50 in [8] is > 100 µM (active).

Turning to `COC(=O)c1c[nH]nc1N=C(S)Nc1ccc(C)cc1Cl`, the results for the EC50 (with Streptococcus; at Streptokinase A; in assay [9]) were > 150 µM (not active), 56.8 µM (active) and 51.6 µM (active), respectively. Besides, the IC50 in [8] is > 100 µM (active).

As for `CN(CC(O)COc1ccc(S(=O)(=O)N2CCOCC2)cc1)C1CCCCC1` (configuration not stated), the IC50 at Estrogen receptor beta is > 50 µM (not active).

In the case of `COc1ccc(CC(=O)Nc2ccc(C(N)=O)cc2)cc1`, the IC50 is > 109 µM (inactive) in [2] and > 83.3 µM (inactive) in assay [3].

`O=C(Cn1cnc2c(nnn2Cc2ccc(Cl)cc2)c1=O)NCc1ccco1`: the IC50 in assay [8] was > 100 µM (active).

Take `CC(=O)c1sc(NC(=O)C2CCN(C(=O)c3ccccc3C)CC2)nc1-c1ccccc1`: the CC50 in assay [1] is > 40 µM (active).

For the molecule `COCCCn1c(=O)/c(=C\c2cccc(OC)c2OC)s/c1=C(/C#N)C(=O)Nc1ccc(C(=O)O)cc1`, the IC50 in assay [10] is > 80 µM (inactive). The CC50 in assay [11] is > 40 µM (active).

`O=C(CSc1cc(Cl)ccc1Cl)N/N=C/c1ccc[nH]1`: the IC50 in assay [12] is 15 µM (inactive).

As for `Cc1ccc2c(c1)N=C(c1ccc(Cl)cc1)CO2`, the IC50 in [8] was > 100 µM (active).
